Measurements as given in publication PMC4698058 (Fitoterapia, 2015).

Molecular target: T1, recombinant human M1 receptor (Homo sapiens, UniProt P11229)
T1 sequence (P11229 1-460): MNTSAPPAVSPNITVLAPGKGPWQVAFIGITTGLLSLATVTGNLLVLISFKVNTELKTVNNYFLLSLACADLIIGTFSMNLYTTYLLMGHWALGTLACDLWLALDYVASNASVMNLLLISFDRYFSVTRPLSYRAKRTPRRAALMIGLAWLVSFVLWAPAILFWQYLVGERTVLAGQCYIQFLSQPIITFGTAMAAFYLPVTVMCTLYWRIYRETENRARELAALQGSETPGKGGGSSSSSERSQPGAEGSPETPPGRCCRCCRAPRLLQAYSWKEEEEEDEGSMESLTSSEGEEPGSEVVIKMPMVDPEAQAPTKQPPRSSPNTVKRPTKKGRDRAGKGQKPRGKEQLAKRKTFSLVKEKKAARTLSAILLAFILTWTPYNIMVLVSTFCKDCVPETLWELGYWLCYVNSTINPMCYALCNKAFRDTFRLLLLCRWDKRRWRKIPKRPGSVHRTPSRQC
Experiment: Inhibition of carbacol-induced Ca2+ mobilization in CHO-M1 cells
Format: cell-based
Conditions: for inhibition of carbacol induced M1 receptor activities: compound at 10 μM

Row | Compound | inhibition of carbacol induced M1 receptor activities (CHO-M1 cells) | other results
1 | O=C(O)/C=C/c1ccc(O)c(O)c1 [caffeic acid, reference compound] | – | activity against M1 receptor (concentrations up to 10 μM, CHO-M1 cells): did not show any activity
2 | NCCCCNC(=O)/C=C/c1ccc(O)c(O)c1 [compound 6, cafeoylputrescine] | 35-40% | –
3 | scotanamine A [compound 1] | 35-40% | –
4 | scotanamine C [compound 3] | – | IC50 (read-out: IC50, inhibitory activity against M1 receptor): 7.8 µM
